Data: ChEMBL document CHEMBL3045723, “Synthesis of novel 3-(5-sulfanyl-1,3,4-oxadiazol-2-yl)-2H-chromen-2-one condensed s-triazinyl piperazines and piperidines as antimicrobial agents” (2012)
Values after ≈ are worked out from the molar mass of the structure shown.

What was measured:
Type in all cases: functional
[1] = tested on: Aspergillus niger; assay: Antifungal activity against Aspergillus niger MTCC 282 after 48 hr; conditions: MTCC 282, 48 h
[2] = tested on: Aspergillus niger; assay: Antifungal activity against Aspergillus niger MTCC 282 at 100 ug/disk after 24 hr by agar disk diffusion test; conditions: MTCC 282, 24 h, read-out: IZ
[3] = tested on: Candida albicans; assay: Antifungal activity against Candida albicans MTCC 183 after 48 hr; conditions: MTCC 183, 48 h
[4] = tested on: Candida albicans; assay: Antifungal activity against Candida albicans MTCC 183 at 100 ug/disk after 24 hr by agar disk diffusion test; conditions: MTCC 183, 24 h, read-out: IZ
[5] = tested on: Salmonella typhi; assay: Antibacterial activity against Salmonella enterica subsp. enterica serovar Typhi MTCC 733 after 24 hr; conditions: MTCC 733, 24 h
[6] = tested on: Bacillus cereus; assay: Antibacterial activity against Bacillus cereus MTCC 619 after 24 hr by agar disk diffusion test
[7] = tested on: Staphylococcus aureus; assay: Antibacterial activity against Staphylococcus aureus MTCC 96 after 24 hr; conditions: MTCC 96, 24 h
[8] = tested on: Salmonella typhi; assay: Antibacterial activity against Salmonella enterica subsp. enterica serovar Typhi MTCC 733 after 24 hr by agar disk diffusion test
[9] = tested on: Shigella flexneri; assay: Antibacterial activity against Shigella flexneri after 24 hr
[10] = tested on: Candida albicans; assay: Antifungal activity against Candida albicans MTCC 183 after 24 hr by agar disk diffusion test
[11] = tested on: Klebsiella pneumoniae; assay: Antibacterial activity against Klebsiella pneumoniae MTCC 109 after 24 hr; conditions: MTCC 109, 24 h
[12] = tested on: Proteus vulgaris; assay: Antibacterial activity against Proteus vulgaris MTCC 1771 after 24 hr; conditions: MTCC 1771, 24 h
[13] = tested on: Pseudomonas aeruginosa; assay: Antibacterial activity against Pseudomonas aeruginosa MTCC 741 after 24 hr by agar disk diffusion test
[14] = tested on: Pseudomonas aeruginosa; assay: Antibacterial activity against Pseudomonas aeruginosa MTCC 741
[15] = tested on: Escherichia coli; assay: Antibacterial activity against Escherichia coli MTCC 739 after 24 hr; conditions: MTCC 739, 24 h
[16] = tested on: Staphylococcus aureus; assay: Antibacterial activity against Staphylococcus aureus MTCC 96 after 24 hr by agar disk diffusion test
[17] = tested on: Escherichia coli; assay: Antibacterial activity against Escherichia coli MTCC 739 after 24 hr by agar disk diffusion test
[18] = tested on: Aspergillus niger; assay: Antifungal activity against Aspergillus niger MTCC 282 after 24 hr by agar disk diffusion test
[19] = tested on: Bacillus cereus; assay: Antibacterial activity against Bacillus cereus MTCC 619 after 24 hr; conditions: MTCC 619, 24 h
[20] = tested on: Shigella flexneri; assay: Antibacterial activity against Shigella flexneri after 24 hr by agar disk diffusion test
[21] = tested on: Proteus vulgaris; assay: Antibacterial activity against Proteus vulgaris MTCC 1771 after 24 hr by agar disk diffusion test
[22] = tested on: Klebsiella pneumoniae; assay: Antibacterial activity against Klebsiella pneumoniae MTCC 109 after 24 hr by agar disk diffusion test

Structure (SMILES): CC(=O)N1CCN(c2ccc(OCC3COC(Cn4ccnc4)(c4ccc(Cl)cc4Cl)O3)cc2)CC1 (centres undefined) [KETOCONAZOLE]
- MIC [1]: 1.56 µg/mL (≈ 2.94 µM)
- zone of inhibition at 100 µg/disc [2]: 30 mm
- MIC [3]: 1.56 µg/mL (≈ 2.94 µM)
- zone of inhibition at 100 µg/disc [4]: 33 mm

Structure (SMILES): O=c1oc2ccccc2cc1-c1nnc(Sc2nc(Oc3cccc4cccnc34)nc(N3CCCCC3)n2)o1
- MIC [5]: 100 µg/mL (≈ 181 µM)
- MIC [1]: 100 µg/mL (≈ 181 µM)
- inhibition zone (IZ) [6]: <10 mm
- MIC [7]: 100 µg/mL (≈ 181 µM)
- MIC [3]: 100 µg/mL (≈ 181 µM)
- inhibition zone (IZ) [8]: 14 mm
- MIC [9]: 100 µg/mL (≈ 181 µM)
- inhibition zone (IZ) [10]: <10 mm
- MIC [11]: 50 µg/mL (≈ 90.6 µM)
- MIC [12]: 100 µg/mL (≈ 181 µM)
- inhibition zone (IZ) [13]: 15 mm
- MIC [14]: 100 µg/mL (≈ 181 µM)
- MIC [15]: 100 µg/mL (≈ 181 µM)
- inhibition zone (IZ) [16]: 11 mm
- inhibition zone (IZ) [17]: <10 mm
- inhibition zone (IZ) [18]: <10 mm
- MIC [19]: 100 µg/mL (≈ 181 µM)
- inhibition zone (IZ) [20]: <10 mm
- inhibition zone (IZ) [21]: <10 mm
- inhibition zone (IZ) [22]: 20 mm

Structure (SMILES): CC1CC(C)CN(c2nc(Oc3cccc4cccnc34)nc(Sc3nnc(-c4cc5ccccc5oc4=O)o3)n2)C1 (centres undefined)
- MIC [5]: 12.5 µg/mL (≈ 21.6 µM)
- MIC [1]: 25 µg/mL (≈ 43.1 µM)
- inhibition zone (IZ) [6]: 21 mm
- MIC [7]: 25 µg/mL (≈ 43.1 µM)
- MIC [3]: 100 µg/mL (≈ 173 µM)
- inhibition zone (IZ) [8]: 23 mm
- MIC [9]: 25 µg/mL (≈ 43.1 µM)
- inhibition zone (IZ) [10]: 16 mm
- MIC [11]: 100 µg/mL (≈ 173 µM)
- MIC [12]: 100 µg/mL (≈ 173 µM)
- inhibition zone (IZ) [13]: 22 mm
- MIC [14]: 12.5 µg/mL (≈ 21.6 µM)
- MIC [15]: 50 µg/mL (≈ 86.3 µM)
- inhibition zone (IZ) [16]: 22 mm
- inhibition zone (IZ) [17]: 20 mm
- inhibition zone (IZ) [18]: 23 mm
- MIC [19]: 50 µg/mL (≈ 86.3 µM)
- inhibition zone (IZ) [20]: 24 mm
- inhibition zone (IZ) [21]: 19 mm
- inhibition zone (IZ) [22]: 16 mm

Structure (SMILES): CC(=O)N1CCN(c2nc(Oc3cccc4cccnc34)nc(Sc3nnc(-c4cc5ccccc5oc4=O)o3)n2)CC1
- MIC [5]: 12.5 µg/mL (≈ 21 µM)
- MIC [1]: 100 µg/mL (≈ 168 µM)
- inhibition zone (IZ) [6]: 22 mm
- MIC [7]: 50 µg/mL (≈ 84.1 µM)
- MIC [3]: 100 µg/mL (≈ 168 µM)
- inhibition zone (IZ) [8]: 22 mm
- MIC [9]: 25 µg/mL (≈ 42 µM)
- inhibition zone (IZ) [10]: 13 mm
- MIC [11]: 100 µg/mL (≈ 168 µM)
- MIC [12]: 100 µg/mL (≈ 168 µM)
- inhibition zone (IZ) [13]: 23 mm
- MIC [14]: 12.5 µg/mL (≈ 21 µM)
- MIC [15]: 100 µg/mL (≈ 168 µM)
- inhibition zone (IZ) [16]: 20 mm
- inhibition zone (IZ) [17]: 15 mm
- inhibition zone (IZ) [18]: 16 mm
- MIC [19]: 25 µg/mL (≈ 42 µM)
- inhibition zone (IZ) [20]: 23 mm
- inhibition zone (IZ) [21]: 18 mm
- inhibition zone (IZ) [22]: 13 mm

Structure (SMILES): O=c1oc2ccccc2cc1-c1nnc(Sc2nc(Oc3cccc4cccnc34)nc(N3CCC(Cc4ccccc4)CC3)n2)o1
- MIC [5]: 100 µg/mL (≈ 156 µM)
- MIC [1]: 100 µg/mL (≈ 156 µM)
- inhibition zone (IZ) [6]: 13 mm
- MIC [7]: 100 µg/mL (≈ 156 µM)
- MIC [3]: 100 µg/mL (≈ 156 µM)
- inhibition zone (IZ) [8]: 14 mm
- MIC [9]: 100 µg/mL (≈ 156 µM)
- inhibition zone (IZ) [10]: 13 mm
- MIC [11]: 100 µg/mL (≈ 156 µM)
- MIC [12]: 100 µg/mL (≈ 156 µM)
- inhibition zone (IZ) [13]: <10 mm
- MIC [14]: 100 µg/mL (≈ 156 µM)
- MIC [15]: 100 µg/mL (≈ 156 µM)
- inhibition zone (IZ) [16]: 16 mm
- inhibition zone (IZ) [17]: 12 mm
- inhibition zone (IZ) [18]: <10 mm
- MIC [19]: 100 µg/mL (≈ 156 µM)
- inhibition zone (IZ) [20]: 11 mm
- inhibition zone (IZ) [21]: <10 mm
- inhibition zone (IZ) [22]: <10 mm
